Key:
[1] = Stability test of crystalline forms (high temperature, high humidity, irradiation; HPLC purity and crystal form); assay type: physicochemical
Experimental: Test samples were put into an open and proper clean container, and left to stand at 60° C. for 10 days. Samples were collected on day 5 and day 10;
Test samples were put into a closed humid container, and left to stand at 92.5%±5% RH/25° C. for 10 days. Samples were collected on day 5 and day 10;
Test samples were put into a lighting box or other suitable lighting devices (open) with fluorescent lamps at 4500 1×±500 1× for 10 days. Samples were collected on day 5 and day 10.
In the three conditions, the purity of the product and the contents of related substances were detected after the test samples were placed in the experimental conditions. • Instrument: Thermo U3000 high-performance liquid chromatography; • Detector: thermo VWD-3100 UV absorption detector/DAD-3000 diode array detector; • Chromatographic column: XSelect CSH C18 (4.6×150 mm, 3.5 μm); • Injection volume: 10 μL; detection wavelength: 280 nm; flow rate: 1.0 mL/min; column temperature: 30° C.; • Mobile phase: phase A: 0.1% of aqueous formic acid solution, phase B: acetonitrile, gradient elution; • Preparation of sample solution: An appropriate amount of the product was precisely, and dissolved in methanol. The solution was quantitatively diluted to obtain a solution containing about 0.5 mg per 1 mL as a test solution.

[2] = Hygroscopicity test (Chinese Pharmacopoeia General Chapter 9103); assay type: physicochemical; conditions: 25° C.±1° C., relative humidity 80%±2%, 24 h
Excerpt: For the method and conditions of the hygroscopicity test, please refer to the “Guidelines for the Hygroscopicity Test of Drugs” (General Chapter 9103, Chinese Pharmacopoeia, Volume IV, 2015 Edition). Hygroscopicity refers to the capability or degree of a substance for absorbing water in certain temperature and humidity conditions. The test samples were solid drug substances meeting the specifications, and the test results may be used as a reference for selection of suitable drug packaging and storage conditions. • (1) A dried glass weighing bottle with a plug (outer diameter: 50 mm; height: 15 mm) was taken and placed in a suitable thermostatic dryer (with saturated ammonium chloride or ammonium sulfate solution placed in the lower part) at 25° C.±1° C. or an artificial climate box (with a set temperature at 25° C.±1° C. and relative humidity at 80%±2%) on the day before the test, and the weight (m1) was precisely measured. • (2) An appropriate amount of test sample was taken and spread in the above weighing bottle, with the thickness of the test sample being about 1 mm in general, and the weight (m2) was precisely measured. • (3) The weighing bottle was opened and placed in the above conditions at constant temperature and humidity for 24 h together with the cap. • (4) The weighing bottle was capped, and the weight (m3) was precisely measured.

[3] = High humidity 92.5 ± 5% RH/25° C., Day 0
[4] = High humidity 92.5 ± 5% RH/25° C., Day 5
[5] = High humidity 92.5 ± 5% RH/25° C., Day 10
[6] = High temperature 60° C., open container, Day 0
[7] = High temperature 60° C., open container, Day 5
[8] = High temperature 60° C., open container, Day 10
[9] = Irradiation 4500 ± 500 lx, Day 0
[10] = Irradiation 4500 ± 500 lx, Day 5
[11] = Irradiation 4500 ± 500 lx, Day 10

| SMILES | Crystalline form [1, 3] | Purity [1, 3] [%] | Crystalline form [1, 4] | Purity [1, 4] [%] | Crystalline form [1, 5] | Purity [1, 5] [%] | Crystalline form ([1]; High temperature 60° C., Day 0) | Crystalline form ([1]; High temperature 60° C., Day 5) | Crystalline form ([1]; High temperature 60° C., Day 10) | Purity [1, 6] [%] | Purity [1, 7] [%] | Purity [1, 8] [%] | Crystalline form [1, 9] | Purity [1, 9] [%] | Crystalline form [1, 10] | Purity [1, 10] [%] | Crystalline form [1, 11] | Purity [1, 11] [%] | Hygroscopic weight gain [2] [wt %] |
| --- | --- | --- | --- | --- | --- | --- | --- | --- | --- | --- | --- | --- | --- | --- | --- | --- | --- | --- | --- |
| CC1(C)CCC(CN2CCN(c3ccc(C(=O)NS(=O)(=O)c4ccc(NC[C@H]5COCCO5)c([N+](=O)[O-])c4)c(Oc4cnc5[nH]ccc5c4)c3)CC2)=C(c2ccc(C(F)(F)F)cc2Cl)C1 [Amorphous form] | Amorphous | 97.91 | Amorphous | 97.85 | Amorphous | 97.89 | Amorphous | Amorphous | Amorphous | 97.91 | 97.51 | 97.33 | Amorphous | 97.91 | Amorphous | 95.96 | Amorphous | 93.83 |  |
| CC1(C)CCC(CN2CCN(c3ccc(C(=O)NS(=O)(=O)c4ccc(NC[C@H]5COCCO5)c([N+](=O)[O-])c4)c(Oc4cnc5[nH]ccc5c4)c3)CC2)=C(c2ccc(C(F)(F)F)cc2Cl)C1 [Crystalline form A] |  | 97.92 |  | 97.84 |  | 97.91 |  |  |  | 97.92 | 97.41 | 97.17 |  | 97.92 |  | 97.07 |  | 96.62 | 1.38 |
| CC1(C)CCC(CN2CCN(c3ccc(C(=O)NS(=O)(=O)c4ccc(NC[C@H]5COCCO5)c([N+](=O)[O-])c4)c(Oc4cnc5[nH]ccc5c4)c3)CC2)=C(c2ccc(C(F)(F)F)cc2Cl)C1 [Crystalline form B] |  | 98.44 |  | 98.45 |  | 98.36 |  |  |  | 98.44 | 98.34 | 98.22 |  | 98.44 |  | 98.22 |  | 97.68 | 0.30 |
| CC1(C)CCC(CN2CCN(c3ccc(C(=O)NS(=O)(=O)c4ccc(NC[C@H]5COCCO5)c([N+](=O)[O-])c4)c(Oc4cnc5[nH]ccc5c4)c3)CC2)=C(c2ccc(C(F)(F)F)cc2Cl)C1 [Crystalline form C] |  | 98.56 |  | 98.70 |  | 98.64 |  |  |  | 98.56 | 98.25 | 97.31 |  | 98.56 |  | 98.45 |  | 98.15 | 0.11 |
| CC1(C)CCC(CN2CCN(c3ccc(C(=O)NS(=O)(=O)c4ccc(NC[C@H]5COCCO5)c([N+](=O)[O-])c4)c(Oc4cnc5[nH]ccc5c4)c3)CC2)=C(c2ccc(C(F)(F)F)cc2Cl)C1 [Crystalline form D] |  |  |  |  |  |  |  |  |  |  |  |  |  |  |  |  |  |  | 0.75 |
| CC1(C)CCC(CN2CCN(c3ccc(C(=O)NS(=O)(=O)c4ccc(NC[C@H]5COCCO5)c([N+](=O)[O-])c4)c(Oc4cnc5[nH]ccc5c4)c3)CC2)=C(c2ccc(C(F)(F)F)cc2Cl)C1 [Crystalline form E] |  | 98.02 |  |  |  | 97.89 |  |  |  | 98.02 |  | 97.88 |  | 98.02 |  |  |  | 97.71 | 0.11 |
| CC1(C)CCC(CN2CCN(c3ccc(C(=O)NS(=O)(=O)c4ccc(NC[C@H]5COCCO5)c([N+](=O)[O-])c4)c(Oc4cnc5[nH]ccc5c4)c3)CC2)=C(c2ccc(C(F)(F)F)cc2Cl)C1 [Crystalline form F] |  |  |  |  |  |  |  |  |  |  |  |  |  |  |  |  |  |  | 0.76 |
| CC1(C)CCC(CN2CCN(c3ccc(C(=O)NS(=O)(=O)c4ccc(NC[C@H]5COCCO5)c([N+](=O)[O-])c4)c(Oc4cnc5[nH]ccc5c4)c3)CC2)=C(c2ccc(C(F)(F)F)cc2Cl)C1 [Crystalline form H] |  |  |  |  |  |  |  |  |  |  |  |  |  |  |  |  |  |  | 0.25 |

Reference: patent publication US12545674B2, “Crystal of trifluoromethyl/chloro disubstituted sulfonamide selective BCL-2 inhibitor” (priority 2020, dated 2026)
